This is an account of results in patent US20030083484A1, “Antisense modulation of short heterodimer partner-1 expression” (priority 2001, published 2003).

For the series, the system named is mouse short heterodimer partner-1 mRNA. Nature of the series: Inhibition of mouse short heterodimer partner-1 mRNA levels in primary hepatocytes, quantitative real-time PCR. Type of series: cell-based. Particulars: averages from two experiments. Set-up: concentration or dose not given beside the values. Here is the method: Primary mouse hepatocytes were prepared from CD-1 mice purchased from Charles River Labs (Wilmington, Mass.) and were routinely cultured in Hepatoyte Attachment Media (Gibco) supplemented with 10% Fetal Bovine Serum (Gibco/Life Technologies, Gaithersburg, Md.), 250 nM dexamethasone (Sigma), and 10 nM bovine insulin (Sigma). Cells were seeded into 96-well plates (Falcon-Primaria #3872) at a density of 10000 cells/well for use in RT-PCR analysis.
Cells were harvested 16-24 hours after oligonucleotide treatment.
Vacuum was applied for 15 seconds. […] The elution step was repeated with an additional 60 μL water.
Total RNA is quantified using RiboGreen™ RNA quantification reagent from Molecular Probes.
Probes and primers to mouse short heterodimer partner-1 were designed to hybridize to a mouse short heterodimer partner-1 sequence, using published sequence information (GenBank accession number L75567, incorporated herein as SEQ ID NO: 10).
All cytidine residues are 5-methylcytidines. […] Data are averages from two experiments. If present, “N.D.” indicates “no data”.
(In general: Real-time PCR tracks product formation cycle by cycle.)

Strand notation (5' to 3'): a small letter for the sugar, then the base; units joined by * are phosphorothioate-linked, units joined directly phosphodiester-linked; [ ] holds rarer units or linkages, { } end groups; capitals alone tell only the bases. e = 2'-O-(2-methoxyethyl) (MOE); [5mC] = 5-methylcytosine; d = 2'-deoxy (DNA)

Take “ISIS 148262: 2′-MOE gapmer, phosphorothioate, TGACTGGCCGGAGCTCATGG, targets mouse short heterodimer partner-1 RNA (antisense eT*eG*eA*e[5mC]*eT*dG*dG*d[5mC]*d[5mC]*dG*dG*dA*dG*d[5mC]*dT*e[5mC]*eA*eT*eG*eG)”: the “% INHIB (inhibition of mouse short heterodimer partner-1 mRNA levels)” value (shortened to “% INHIB”) was “at least 50%”.

Regarding “148263 (antisense eA*e[5mC]*e[5mC]*eT*eG*d[5mC]*dA*dG*dA*dG*d[5mC]*d[5mC]*d[5mC]*dT*dG*eG*e[5mC]*eA*eT*eG) [compound 148263]”, the “% INHIB” value amounted to 0%.

In the case of “148266 (antisense eA*eG*eG*e[5mC]*eA*dG*dT*dG*dG*d[5mC]*dT*dG*dT*dG*dA*eG*eA*eT*eG*e[5mC]) [compound 148266]”, the “% INHIB” value is recorded as 44%.

For “ISIS 148276: 2′-MOE gapmer, phosphorothioate, AGAAAGACTCCAGGCAGCGC, targets mouse short heterodimer partner-1 RNA (antisense eA*eG*eA*eA*eA*dG*dA*d[5mC]*dT*d[5mC]*d[5mC]*dA*dG*dG*d[5mC]*eA*eG*e[5mC]*eG*e[5mC])”, the “% INHIB” value was “at least 50%”.

As to “148282 (antisense eT*eG*eA*eT*eG*dT*d[5mC]*dA*dA*d[5mC]*dG*dT*d[5mC]*dT*d[5mC]*e[5mC]*e[5mC]*eA*eT*eG) [compound 148282]”, the “% INHIB” value stood at 22%.

With “148269 (antisense eT*eA*eG*eG*eA*d[5mC]*dA*dT*d[5mC]*d[5mC]*dA*dA*dG*dG*d[5mC]*e[5mC]*eT*e[5mC]*e[5mC]*e[5mC]) [compound 148269]”, the “% INHIB” value turned out to be 59%.

With “148276 (antisense eA*eG*eA*eA*eA*dG*dA*d[5mC]*dT*d[5mC]*d[5mC]*dA*dG*dG*d[5mC]*eA*eG*e[5mC]*eG*e[5mC]) [compound 148276]”, the “% INHIB” value came out at 56%.

On to “148267 (antisense e[5mC]*eA*e[5mC]*eA*eG*dA*d[5mC]*dG*d[5mC]*dA*d[5mC]*dA*dG*dG*d[5mC]*e[5mC]*eG*e[5mC]*eT*eG) [compound 148267]”, for which the “% INHIB” value amounted to 28%.

As for “148275 (antisense eT*eG*eT*eG*eG*d[5mC]*d[5mC]*dG*dG*dT*d[5mC]*dT*dG*dA*dT*eG*eG*e[5mC]*eT*eG) [compound 148275]”, the “% INHIB” value is 28%.

With “148273 (antisense eT*eG*eG*e[5mC]*eT*dT*d[5mC]*d[5mC]*dT*d[5mC]*dT*dA*dG*d[5mC]*dA*eG*eG*eA*eT*e[5mC]) [compound 148273]”, the “% INHIB” value amounted to 33%.

As for “148270 (antisense e[5mC]*eA*e[5mC]*eT*e[5mC]*dT*dA*dG*d[5mC]*dA*dG*d[5mC]*d[5mC]*dG*d[5mC]*e[5mC]*eG*e[5mC]*eT*eG) [compound 148270]”, the “% INHIB” value is given as 46%.

Regarding “148277 (antisense eT*eT*e[5mC]*eA*eG*dG*dT*dA*d[5mC]*dG*d[5mC]*dA*dT*dA*d[5mC]*eT*e[5mC]*e[5mC]*eT*eT) [compound 148277]”, the “% INHIB” value is 62%.

Turning to “ISIS 148286: 2′-MOE gapmer, phosphorothioate, AGTCATCAAGGGCTTGCTGG, targets mouse short heterodimer partner-1 RNA (antisense eA*eG*eT*e[5mC]*eA*dT*d[5mC]*dA*dA*dG*dG*dG*d[5mC]*dT*dT*eG*e[5mC]*eT*eG*eG)”, the “% INHIB” value is recorded as “at least 50%”.

Consider “148285 (antisense eA*e[5mC]*eA*eG*eT*dT*dA*dG*dT*dA*dG*dT*dG*dT*dA*e[5mC]*eA*e[5mC]*eT*eG) [compound 148285]”, for which the “% INHIB” value was 50%.

On to “148262 (antisense eT*eG*eA*e[5mC]*eT*dG*dG*d[5mC]*d[5mC]*dG*dG*dA*dG*d[5mC]*dT*e[5mC]*eA*eT*eG*eG) [compound 148262]”, for which the “% INHIB” value amounted to 50%.

With “ISIS 148271: 2′-MOE gapmer, phosphorothioate, AACCCAAGCAGGAAGAGAGG, targets mouse short heterodimer partner-1 RNA (antisense eA*eA*e[5mC]*e[5mC]*e[5mC]*dA*dA*dG*d[5mC]*dA*dG*dG*dA*dA*dG*eA*eG*eA*eG*eG)”, the “% INHIB” value is listed as “at least 50%”.

For “ISIS 148287: 2′-MOE gapmer, phosphorothioate, GTTCTGTACAAAGTCAGGAG, targets mouse short heterodimer partner-1 RNA (antisense eG*eT*eT*e[5mC]*eT*dG*dT*dA*d[5mC]*dA*dA*dA*dG*dT*d[5mC]*eA*eG*eG*eA*eG)”, the “% INHIB” value is reported as “at least 50%”.

As to “148280 (antisense eG*eT*eG*e[5mC]*e[5mC]*dT*dG*dG*dA*dA*dT*dG*dT*dT*d[5mC]*eT*eT*eG*eA*eG) [compound 148280]”, the “% INHIB” value was 33%.

On to “ISIS 148269: 2′-MOE gapmer, phosphorothioate, TAGGACATCCAAGGCCTCCC, targets mouse short heterodimer partner-1 RNA (antisense eT*eA*eG*eG*eA*d[5mC]*dA*dT*d[5mC]*d[5mC]*dA*dA*dG*dG*d[5mC]*e[5mC]*eT*e[5mC]*e[5mC]*e[5mC])”, for which the “% INHIB” value was “at least 50%”.

Consider “ISIS 148284: 2′-MOE gapmer, phosphorothioate, GAGGCACCAGACTCCATTCC, targets mouse short heterodimer partner-1 RNA (antisense eG*eA*eG*eG*e[5mC]*dA*d[5mC]*d[5mC]*dA*dG*dA*d[5mC]*dT*d[5mC]*d[5mC]*eA*eT*eT*e[5mC]*e[5mC])”, for which the “% INHIB” value is “at least 50%”.

Turning to “148279 (antisense eG*eG*eT*eA*eG*dA*dG*dG*d[5mC]*d[5mC]*dA*dT*dG*dA*dG*eG*eA*eG*eG*eA) [compound 148279]”, the “% INHIB” value is 43%.

Regarding “ISIS 148272: 2′-MOE gapmer, phosphorothioate, CGGAGCCTCAGCCACCTCGA, targets mouse short heterodimer partner-1 RNA (antisense e[5mC]*eG*eG*eA*eG*d[5mC]*d[5mC]*dT*d[5mC]*dA*dG*d[5mC]*d[5mC]*dA*d[5mC]*e[5mC]*eT*e[5mC]*eG*eA)”, the “% INHIB” value is reported as “at least 50%”.

As to “148274 (antisense eG*eG*e[5mC]*eA*e[5mC]*d[5mC]*d[5mC]*dT*dG*dG*dG*dT*dA*d[5mC]*d[5mC]*eG*e[5mC]*eT*eG*e[5mC]) [compound 148274]”, the “% INHIB” value worked out at 22%.

Take “148278 (antisense e[5mC]*eA*e[5mC]*eA*eG*dT*dG*d[5mC]*d[5mC]*d[5mC]*dA*dG*dT*dG*dA*eG*e[5mC]*e[5mC]*eT*e[5mC]) [compound 148278]”: the “% INHIB” value is reported as 36%.

With “148265 (antisense eA*eG*eG*eT*eG*d[5mC]*dA*dA*d[5mC]*dG*dG*dG*d[5mC]*d[5mC]*dT*eG*eG*eT*e[5mC]*e[5mC]) [compound 148265]”, the “% INHIB” value is given as 41%.

As for “ISIS 148264: 2′-MOE gapmer, phosphorothioate, GCATACAGAATAGTCGGACG, targets mouse short heterodimer partner-1 RNA (antisense eG*e[5mC]*eA*eT*eA*d[5mC]*dA*dG*dA*dA*dT*dA*dG*dT*d[5mC]*eG*eG*eA*e[5mC]*eG)”, the “% INHIB” value is reported as “at least 50%”.

For the substance “ISIS 148277: 2′-MOE gapmer, phosphorothioate, TTCAGGTACGCATACTCCTT, targets mouse short heterodimer partner-1 RNA (antisense eT*eT*e[5mC]*eA*eG*dG*dT*dA*d[5mC]*dG*d[5mC]*dA*dT*dA*d[5mC]*eT*e[5mC]*e[5mC]*eT*eT)”, the “% INHIB” value is on record as “at least 50%”.

On to “148271 (antisense eA*eA*e[5mC]*e[5mC]*e[5mC]*dA*dA*dG*d[5mC]*dA*dG*dG*dA*dA*dG*eA*eG*eA*eG*eG) [compound 148271]”, for which the “% INHIB” value stood at 56%.

“148268 (antisense eT*eG*e[5mC]*eA*eG*dG*dT*dG*d[5mC]*dG*dG*dT*dG*d[5mC]*dG*eG*eA*eG*e[5mC]*eA) [compound 148268]”: the “% INHIB” value is listed as 19%.

Turning to “148272 (antisense e[5mC]*eG*eG*eA*eG*d[5mC]*d[5mC]*dT*d[5mC]*dA*dG*d[5mC]*d[5mC]*dA*d[5mC]*e[5mC]*eT*e[5mC]*eG*eA) [compound 148272]”, the “% INHIB” value was 69%.

Consider “ISIS 148285: 2′-MOE gapmer, phosphorothioate, ACAGTTAGTAGTGTACACTG, targets mouse short heterodimer partner-1 RNA (antisense eA*e[5mC]*eA*eG*eT*dT*dA*dG*dT*dA*dG*dT*dG*dT*dA*e[5mC]*eA*e[5mC]*eT*eG)”, for which the “% INHIB” value was “at least 50%”.

“148281 (antisense eA*eG*eA*eA*eG*dA*dG*dA*dT*d[5mC]*dT*dA*d[5mC]*d[5mC]*dA*eG*eA*eA*eG*eG) [compound 148281]”: the “% INHIB” value is recorded as 48%.

Regarding “148264 (antisense eG*e[5mC]*eA*eT*eA*d[5mC]*dA*dG*dA*dA*dT*dA*dG*dT*d[5mC]*eG*eG*eA*e[5mC]*eG) [compound 148264]”, the “% INHIB” value is 60%.
